Experimental data from patent EP0623675A1, “Altered affinity polypeptides of metal chelate binding antibodies” (HYBRITECH INCORPORATED, priority 1992, dated 1994).

What was measured:
[1] = tested on: CHA255 Fab' variant clone 3.7.1 (heavy chain CDR H1/H3 mutagenesis, Fig. 3B); assay: Scatchard analysis of phage expressed altered CHA255 Fab' with InEOTUBE; assay type: binding, murine; settings: compared with native CHA255 Fab' (synthesized and phage expressed); crude periplasm Fab', about 10 nM; cold InEOTUBE 2.43 nM to 0.082 nM
Experimental: (§1) Free Fab' was expressed and isolated from the periplasmic space of the non-suppressor strain MK30-3 as previously described (International Patent Publication No. WO 92/06204). The concentration of antibody in periplasm preparations was estimated by comparing the ELISA signal generated by aliquots of periplasm of mutant clones to a standard curve using purified CHA255 Fab'. Data points for the Scatchard plots were prepared by incubating antibody (100 µl, approximately 10 nM) diluted in 1X PBS, 1% BSA as crude periplasm fraction with dilutions of cold InEOTUBE (2.43 nM to 0.082 nM) in 1X PBS, 1% BSA hapten spiked with ¹¹¹InEOTUBE as a tracer for […]. This assay is described in greater detail in Example 3, below. The sample was centrifuged at 6,000 rpm for 10 minutes in an Amicon Centrifree™ micro-concentrator (Amicon, Grace Co., Danvers, MA), 10,000 MW cutoff, to separate free hapten from hapten bound to Fab'. Total and free counts were determined and the slope of a plot of the ratio of bound hapten to free hapten versus the concentration of bound hapten was calculated for affinity constant (Ka).
(§2) The following were added to a 96 well microtiter plate, in triplicate: • a. 25µl EOTUBE-¹¹¹In-ground state in at 4.40pg/µl; • b. 25µl EOTUBE-ground state in at serial dilutions of the 0.40ng/µl and 0.36ng/µl made above. Eleven dilutions each plus a zero giving 24 points with a range of 10ng/well down to 4.40pg/well plus a zero. Dilute with RPMI containing 10% horse serum; • c. 25µl RPMI containing 10% horse serum; • d. 25µl antibody of interest. (concentration determined by sensitivity assay); and • e. 20µl sheep anti-mouse IgG coupled to sepharose beads (same as used in sensitivity curve assay).
(§3) The plate was incubated overnight on a rotator at room temperature. The contents of wells were aspirated onto glass-fiber filter paper, cut out and counted. Molar bound vs. bound/free were graphed. The linear regression of the part of the curve that is a straight line was determined. Ka was the negative of the slope.

[2] = tested on: CHA255 Fab' variant clone 3.1.1 (heavy chain CDR H1/H3 mutagenesis, Fig. 3B); assay: as above; assay type: binding, murine; settings: compared with native CHA255 Fab' (synthesized and phage expressed); crude periplasm Fab', about 10 nM; cold InEOTUBE 2.43 nM to 0.082 nM
Experimental: as §1, §2, §3

[3] = tested on: CHA255 Fab' variant clone 3.2.1 (heavy chain CDR H1/H3 mutagenesis, Fig. 3B); assay: as above; assay type: binding, murine; settings: compared with native phage expressed CHA255 Fab'; crude periplasm Fab', about 10 nM; cold InEOTUBE 2.43 nM to 0.082 nM
Experimental: as §1, §2, §3

[4] = tested on: CHA255 Fab' variant clone 1.1.1 (heavy chain CDR H1/H3 mutagenesis, Fig. 3B); assay: as above; assay type: binding, murine; settings: compared with native CHA255 Fab' (synthesized and phage expressed); crude periplasm Fab', about 10 nM; cold InEOTUBE 2.43 nM to 0.082 nM
Experimental: as §1, §2, §3

[5] = tested on: CHA255 Fab' variant clone 4.2.1 (heavy chain CDR H1/H3 mutagenesis, Fig. 3B); assay: as above; assay type: binding, murine; settings: compared with native CHA255 Fab' (synthesized and phage expressed); crude periplasm Fab', about 10 nM; cold InEOTUBE 2.43 nM to 0.082 nM
Experimental: as §1, §2, §3

[6] = tested on: monoclonal antibody CHA255; assay: Antibody CHA255 binding assay (Centrifree ultrafiltration of labeled chelate); set-up: species or system murine; settings: radiolabeled chelate 5 nM, antibody 133 nM, PBS pH 7.4, 15 minutes at room temperature
Experimental: As indicated, the monoclonal antibody CHA255 is specific for the In(III)-benzyl EDTA complex. The affinity and characterization have been described previously by Reardon et al. in Nature 316:265 (1985). Binding assays were performed to verify the identity of the haptens designated as DB-I to DB-X and DDB-I to DDB-III. […] For the ⁹⁰Yttrium (III) hapten chelate, in particular, CHA255 binding required the presence of the Indiumbenzyl-EDTA moiety as provided in the compounds of the invention. The labeled DB and DDB hapten chelates were combined with antibody CHA255 in PBS (10 mM sodium phosphate, 150 mM sodium chloride, pH 7.4) containing 44 µg/mL of human serum albumin and 0.05% Triton-X-100 detergent. Concentrations of the radiolabeled hapten chelating agent and antibody were 5 nM and 133 nM, respectively. The mixture was vortexed and allowed to stand at room temperature for 15 minutes, after which it was transferred to an Amicon Centrifree™ device, with a NMW limit of 30,000, and centrifuged to separate antibody-bound chelate from free hapten chelate. The species bound to the antibody was retained by the membrane and the free chelate flowed through the membrane into the filtrate. The extent of antibody-hapten chelate binding was then determined.

Row | Substance | binding affinity (affinity constant Ka for InEOTUBE) [1] | binding affinity (affinity constant Ka for InEOTUBE) [2] | binding affinity (affinity constant Ka for InEOTUBE) [3] | binding affinity (affinity constant Ka for InEOTUBE) [4] | binding affinity (affinity constant Ka for InEOTUBE) [5] | antibody-hapten chelate binding [6]
1 | 4-[N'[2-hydroxyethyl]-thioureido]benzyl EDTA [InEOTUBE] | approximately equivalent | approximately equivalent | approximately one order of magnitude less than the native phage expressed Fab' | approximately equivalent | approximately equivalent | 
2 | diethylenetriaminepentaacetic acid [⁹⁰Yttrium (III) DTPA] |  |  |  |  |  | neither ⁹⁰Yttrium (III) or ¹¹¹Indium (III) DTPA, alone, bound
